In patent publication US11857579B2, “Composition for promoting the secretion of FGF21” (MORINAGA MILK INDUSTRY CO., LTD., priority 2018, dated 2024):

Tests used:
FGF21 = FGF21 concentration in serum by ELISA after oral administration to neonatal mice; format: in vivo, C57BL/6J male mice; conditions: 100 μl once a day during 6 to 20 days old, serum taken at 21 days old
Excerpt: (§1) Bacterial cell powder (2.4×10^11 cfu/g) of Bifidobacterium breve M-16V (NITE BP-02622) triturated with starch was suspended in physiological saline to prepare a Bifidobacterium liquid of 2.5×10^9 cfu/ml.
(§2) Lactulose (manufactured by Morinaga Milk Industry Co., Ltd.), raffinose (product name: Nitten Rraffinose, manufactured by Nippon Beet Sugar Manufacturing Co., Ltd.), and galactooligosaccharide were mixed at a ratio by weight of 1:1:1 and diluted in distilled water to prepare an oligosaccharide stock solution having a total final concentration of 250 mg/ml. The galactooligosaccharide is obtained by removing monosaccharides and disaccharides from a commercial product (product name: Oligomate 55N, manufactured by Yakult Pharmaceutical Industry Co., Ltd.) and contains about 65% by weight of Galβ1-4Galβ1-4Glc (4′-galactosyl lactose) and about 15% by weight of Galβ1-6Galβ1-4Glc (6′-galactosyl lactose). […]
(§3) Each animal was subjected to anatomy at 21 days old and the serum and liver were taken out of the body. The FGF21 concentration in the serum and the expression of FGF21 gene in the liver were determined. The FGF21 concentration in the serum was measured with an ELISA kit (manufactured by R&D Systems). The expression of FGF21 gene in the liver was measured by RT-PCR. […]

FGF21 gene in liver = test: Expression of FGF21 gene in liver by RT-PCR after oral administration to neonatal mice; format: in vivo, C57BL/6J male mice
Excerpt: as §1, §2, §3

## Bifidobacterium breve M-16V (NITE BP-02622) [Group B]
FGF21
  FGF21 Concentration in serum, Average: 397.3 pg/mL
FGF21 gene in liver; at 21 days old, versus group A (vehicle) and group C (oligosaccharide)
  Expression of FGF21 gene in the liver compared with group A and group C: significantly higher
FGF21 gene in liver; neonatal mice, 100 μl once a day during 6 to 20 days old, liver taken at 21 days old, RT-PCR, Group A (vehicle) = 100.0
  Expression of FGF21 gene in liver (values relative to the value of Group A which was taken as 100.0), Average: 197.7
